Measured values from US20040180915A1, “Methadone-containing compositions for parenteral administration and method of use thereof” (priority 2003, published 2004).

Key:
[1] = tested on: microorganisms; conditions: cited from earlier work
[2] = tested on: gram-positive and gram-negative bacteria; conditions: cited from earlier work
[3] = tested on: molds and yeasts; conditions: relative to activity against bacteria; cited from earlier work
[4] = cited from earlier work
[5] = in vivo; cited from earlier work
[6] = ECG/EKG comparison of QTc intervals in patients on and off treatment
From the text: Applicants' also performed a comparison study involving hundreds of EKG's performed on patients treated with IV methadone versus the EKG's of patients not being treated with the IV methadone.

[7] = oral vs intramuscular; cited from earlier work
[8] = cited from earlier work; remark: listed apart in the source

Compound: O=C(O)c1ccccc1 [Benzoic acid]
- pH range (optimal pH range for activity) [1]: 2-5
- activity against growth of gram-positive and gram-negative bacteria [2]: strongly active
- activity against growth of molds and yeasts [3]: slightly weaker

Compound: CCCCOC(=O)c1ccc(O)cc1 [Butylparaben]
- pH range (optimal pH range for activity) [1]: 3.0-9.5
- water solubility [4]: about 0.2%

Compound: COC(=O)c1ccc(O)cc1 [Methylparaben]
- pH range (optimal pH range for activity) [1]: 3.0-9.5
- activity against growth of gram-positive and gram-negative bacteria [2]: strongly active
- activity against growth of molds and yeasts [3]: slightly weaker

Compound: CCCOC(=O)c1ccc(O)cc1 [Propylparaben]
- pH range (optimal pH range for activity) [1]: 3.0-9.5

Compound: C/C=C/C=C/C(=O)O [Sorbic acid]
- pH range (optimal pH range for activity) [1]: <6.5
- activity against growth of gram-positive and gram-negative bacteria [2]: strongly active
- activity against growth of molds and yeasts [3]: slightly weaker

Compound: CC(C)(O)C(Cl)(Cl)Cl [chlorobutanol]
- half-life [5]: over 10 days

Compound: CCC(=O)C(CC(C)N(C)C)(c1ccccc1)c1ccccc1 (stereo not drawn) [methadone]
- QTc prolongation after switch from IV route to oral route ([6]; at least one patient): reversed
- prolongation in QTc interval times ([6]; orally ingested methadone in a formulation without chlorobutanol): did not show a similar prolongation
- total analgesic effects, oral relative to same dose intramuscularly [7]: about 50%
- time to appreciable concentrations in plasma ([8]; after subcutaneous injection): ≤ 10 min
- time to detection in blood plasma after ingestion ([8]; oral): ≤ 30 min

Compound: Benzalkonium chloride
- pH range (optimal pH range for activity) [1]: 4-10
- activity against growth of gram-positive and gram-negative bacteria [2]: strongly active
- activity against growth of molds and yeasts [3]: slightly weaker

Compound: Cetrimide
- pH range (optimal pH range for activity) [1]: 4-10
- activity against growth of gram-positive and gram-negative bacteria [2]: strongly active
- activity against growth of molds and yeasts [3]: slightly weaker
